ChEMBL document CHEMBL4689842, “EUbOPEN Chemogenomics Library wave 1” (2021)

Assays:
Assay type in all cases: toxicity, cell-based
[1] = system: Fibroblast; test: Incucyte cell viability with human fibroblast; settings: 10 µM, compound concentration 10 uM
[2] = system: U2OS; test: Incucyte cell viability with U2OS; settings: human, 10 µM, compound concentration 10 uM
[3] = system: HEK-293T; test: Incucyte cell viability with HEK293T; settings: human, 10 µM, compound concentration 10 uM
[4] = 0 h, replicate number 1, timepoint 0 hours
[5] = 6 h, replicate number 1, timepoint 6 hours
[6] = 12 h, replicate number 1, timepoint 12 hours
[7] = 18 h, replicate number 1, timepoint 18 hours
[8] = 24 h, replicate number 1, timepoint 24 hours
[9] = 12 h, replicate number 2, timepoint 12 hours
[10] = 24 h, replicate number 2, timepoint 24 hours
[11] = 6 h, replicate number 2, timepoint 6 hours
[12] = 0 h, replicate number 2, timepoint 0 hours
[13] = 18 h, replicate number 2, timepoint 18 hours
Further: filed as whole numbers so only -1 and 0 and 1 occur.

Structure (SMILES)	Growth Rate [1, 4]	Growth Rate [1, 5]	Growth Rate [1, 6]	Growth Rate [1, 7]	Growth Rate [1, 8]	Growth Rate [2, 4]	Growth Rate [2, 5]	Growth Rate [2, 6]	Growth Rate [2, 9]	Growth Rate [2, 7]	Growth Rate [2, 8]	Growth Rate [2, 10]	Growth Rate [3, 4]	Growth Rate [3, 5]	Growth Rate [3, 9]	Growth Rate [3, 7]	Growth Rate [3, 8]	Growth Rate [1, 12]	Growth Rate [1, 13]	Growth Rate [3, 6]	other results
O=C(NS(=O)(=O)c1ccc(NCC2CCOCC2)c([N+](=O)[O-])c1)c1ccc(N2CCN(Cc3ccc(C(F)(F)F)cc3-c3ccc(Cl)cc3)CC2)cc1Oc1cnc2[nH]ccc2c1 [A-1210227]	0	1	1	1	1	0	0	1	0	0	1	0	0	0	–	–	–	–	–	–	Growth Rate [3, 10]: 1
CO[C@H]1CC[C@H](CNc2ccc(S(=O)(=O)NC(=O)c3ccc(N4CCN(CC5=C(c6ccc(Cl)cc6)CC(C)(C)CC5)CC4)cc3Oc3cnc4[nH]ccc4c3)cc2[N+](=O)[O-])CC1 [A-1211212]	0	0	0	0	0	0	1	0	1	0	0	1	0	–	1	1	1	–	–	–	Growth Rate [3, 11]: 1; Growth Rate [3, 10]: 0
C[C@]12CCC(=O)C=C1CC[C@@H]1[C@@H]2[C@@H](O)C[C@]2(C=O)[C@@H](C(=O)CO)CC[C@@H]12 [ALDOSTERONE]	0	0	1	1	1	0	–	1	–	1	1	–	0	–	0	1	1	1	0	1	Growth Rate [1, 9]: 0; Growth Rate [2, 11]: 1; Growth Rate [3, 11]: 1
Cc1nc(NC(=O)N2CCC[C@H]2C(N)=O)sc1-c1ccnc(C(C)(C)C(F)(F)F)c1 [ALPELISIB]	1	–	1	1	1	1	1	1	–	0	0	1	–	0	0	1	1	0	0	–	Growth Rate [1, 11]: 1; Growth Rate [1, 9]: 0; Growth Rate [1, 10]: 0; Growth Rate [2, 12]: 0; Growth Rate [2, 13]: 1
CC(C)C[C@H](CO)Nc1nc(S[C@@H](C)c2ccccc2)nc2nc(N)sc12 [AZD-8797]	1	0	0	0	0	–	0	0	–	0	0	–	1	0	1	0	0	0	1	0	Growth Rate [1, 9]: 1; Growth Rate [1, 10]: 1; Growth Rate [3, 12]: 0; Growth Rate [3, 11]: 1
Cc1c(NC(=O)c2cc(C(N)=O)nc3cc(F)ccc23)c(C(F)(F)F)nn1Cc1ccc(C(C)(C)C)cc1 [BAY-588]	0	0	0	0	0	–	–	1	–	0	1	–	0	0	–	0	0	–	–	0	Growth Rate [2, 12]: 0; Growth Rate [2, 13]: 1
CC(=O)C1=C(C)N(c2cccc(C(F)(F)F)c2)C(=O)N[C@@H]1c1ccc(C#N)nc1 [BAY-678]	1	1	0	0	0	0	0	0	1	0	0	–	0	–	–	1	1	0	–	–	Growth Rate [1, 11]: 0; Growth Rate [3, 12]: 1
Cc1c(NC(=O)c2cc(C(N)=O)nc3cc(F)ccc23)c(C(F)(F)F)nn1Cc1ccc(C#N)cc1 [BAY-876]	0	0	0	0	0	1	1	0	–	0	0	–	–	0	–	0	0	–	–	0	Growth Rate [2, 12]: 0; Growth Rate [2, 11]: 0; Growth Rate [3, 12]: 0
CN1CCN(c2cnc3c(C4CCN(C(=O)c5ccc(OC(F)(F)F)cc5N)CC4)ncnc3c2)CC1 [BAY-885]	1	0	1	0	0	0	0	0	1	0	0	1	0	–	–	–	–	0	1	–	Growth Rate [1, 10]: 1; Growth Rate [2, 11]: 1; Growth Rate [2, 13]: 1; Growth Rate [3, 12]: 1; Growth Rate [3, 10]: 1
